Our source for the Kd values is patent US20140050779A1, “[…]-2 INHIBITORS AND USES THEREOF” (SINGAPORE HEALTH SERVICES PTE. LTD., priority 2011, published 2014).

This test addresses T1, hM2 (Homo sapiens, UniProt P08172).
T1 sequence (P08172 1-466): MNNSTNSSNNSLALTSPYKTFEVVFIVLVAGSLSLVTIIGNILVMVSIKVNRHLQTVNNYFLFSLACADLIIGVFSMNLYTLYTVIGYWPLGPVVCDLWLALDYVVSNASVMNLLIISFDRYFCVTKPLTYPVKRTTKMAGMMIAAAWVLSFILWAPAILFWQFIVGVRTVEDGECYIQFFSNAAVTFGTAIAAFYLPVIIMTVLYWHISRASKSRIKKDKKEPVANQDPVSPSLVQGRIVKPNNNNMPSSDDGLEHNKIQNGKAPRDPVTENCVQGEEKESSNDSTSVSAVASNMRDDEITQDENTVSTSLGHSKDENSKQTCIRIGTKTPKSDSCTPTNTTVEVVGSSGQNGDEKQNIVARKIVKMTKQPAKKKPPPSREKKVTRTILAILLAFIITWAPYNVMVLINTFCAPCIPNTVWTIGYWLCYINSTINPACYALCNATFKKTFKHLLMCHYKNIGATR
Kind of test: biochemical. From the text:
In some embodiments, the TG-2 inhibitors described herein can target the respective TG-2 protein and/or the expression of TGM-2. In other embodiments, the TG-2 inhibitors can further target at least one muscarinic receptor, for example M2 or M3 or inhibit the expression of at least one muscarinic receptor for example, M2 or M3.

In the case of `C[C@@H]1OC(=O)[C@H]2C[C@H]3CCCC[C@@H]3[C@@H](/C=C/[C@H]3CCC[C@H](C)N3C)[C@@H]12` [himbacine], the Kd worked out at 4 nM.
